In assay [1] the test system is mice administered with β-amyloid (1-42). The assay can be described thus: Y-maze test in mice injected with β-amyloid (1-42) into the cerebral ventricle. The note with it: for alternation behavior (%): compared with β-amyloid (1-42) only group. Type of assay: in vivo, mouse. The protocol: (§1) The administration of β-amyloid (1-42) to a mouse was carried out in accordance with the method described by Laursen & Belknap (J. Pharmacol. Methods, 16, 355-357 (1986)). Specifically, 5 μl of phosphate-buffered saline containing 1.85 μg of β-amyloid (1-42) was put in a 50 μl Hamilton syringe fitted with a 26 gauge needle, the tip of the needle was inserted into the bregma of the mouse and then the β-amyloid (1-42) solution was administered thereto. Each mouse of a control group received an equal amount of β-amyloid (42-1) in place of β-amyloid (1-42). A passive avoidance test was carried out at days 1-2 (day 1: training, day 2: test) and a Y-maze test, at days 3-4 (day 3: training, day 4: test) after the administration.
Spontaneous alternation behavior of a mouse was examined by a Y-maze test in accordance with the method described in Starter et al., Psychopharmacology, 94, 491-495 (1988) as follows.
The Y-maze consisted of three arms shaped like Y. A test mouse was placed in one of the arms such that it faced the arm's terminal and allowed to roan freely through the three arms for […]. The number of alternation was determined by counting the number of occasions the mouse passed the three arms consecutively. Spontaneous alternation behavior was determined as the percentage of the alternation number based on the total number of arm entries.
Further, Y-maze tests were carried out employing the above-prepared mice as in Reference Example 3.
Forty 4- to 5-week old mice each weighing 20 to 25 g were divided into four groups of equal number. Decursinol was dissolved in corn oil, mixed with a mouse fodder, and the mice of two groups were provided with the resulting fodder for 4 weeks at a daily dose of 7.5 mg decursinol/kg or 15 mg decursinol/kg. The mice of the other two groups were provided with a normal mouse fodder containing an equal amount of corn oil as above for 4 weeks. Thereafter, the mice of one of the two normal fodder groups were administered, into their cerebral ventricle, with 1.85 μg of β-amyloid (42-1) (“control group”) and the mice of the remaining three groups, with β-amyloid (1-42) (Aβ1-42), as in Reference Example 1. Then, a passive avoidance test and a Y-maze test were carried out for each group of mice as in Reference Examples 2 and 3, respectively, and the data attained were averaged for each group.

Assay [2] shares this test system. The assay can be described thus: Passive avoidance test in mice injected with β-amyloid (1-42) into the cerebral ventricle. The note with it: for dementia-preventive effect in passive avoidance test: FIGS. 7A and 7B. It counts as in vivo, mouse. Here is the method: as §1
In order to examine the learning and memory-retention ability of a mouse, a passive avoidance test was carried out in accordance with the method described in Song et al., J. Neurochem., 71, 875-878 (1998), as follows.
A passive avoidance case equipped with a light room and a dark room was prepared, the floor of the dark room being designed to deliver an electrical shock to a test animal. First, a mouse was put in the light room and, upon entering the dark room, it received an electrical shock at 0.25 mA for 1 sec. Twenty-four hours after the training, the mouse was put in the light room again and the time it took to enter the dark room was measured as a passive avoidance time. The maximum time was set at 300 sec., i.e., in case when the mouse took more than 300 sec. to enter the dark room, the passive avoidance time was determined to be 300 sec.
Forty 4- to 5-week old mice each weighing 20 to 25 g were divided into four groups of equal number. The Angelicae gigas Nakai extract prepared in Example 1 was dissolved in water to concentrations of 0.08% (w/v) and 0.1% (w/v), respectively, […] the solution/mouse. The mice of the other two groups were provided with normal drinking water for 4 weeks. Thereafter, the mice of one of the two normal drinking water groups were administered into their cerebral ventricle with 1.85 μg of β-amyloid (42-1) (“control group”) and the mice of the remaining three groups, with β-amyloid (1-42) (Aβ1-42), as in Reference Example 1. Then, a passive avoidance test was carried out for each group of mice as in Reference Example 2 and the data attained were averaged for each group.
Fifty 4- to 5-week old mice each weighing 20 to 25 g were divided into five groups by equal number. Ferulic acid was dissolved in water to concentrations of 0.002% (w/v), 0.004% (w/v) and 0.006% (w/v), respectively, […] the solution/mouse. The mice of the other two groups were provided with normal drinking water for 4 weeks. Thereafter, the mice of one of two normal drinking water groups were administered into their cerebral ventricle with 1.85 μg of β-amyloid (42-1) (“control group”) and the mice of the remaining four groups, with β-amyloid (1-42)(Aβ1-42), as in Reference Example 1. Then, a passive avoidance test was carried out for each group of mice as in Reference Example 2 and the data attained were averaged for each group.
Forty 4- to 5-week old mice each weighing 20 to 25 g were divided into four groups of equal number. Decursinol was dissolved in corn oil, mixed with a mouse fodder, and the mice of two groups were provided with the resulting fodder for 4 weeks at a daily dose of 7.5 mg decursinol/kg or 15 mg decursinol/kg. […]

For assay [3], the system named is OX-42. Put plainly: Immunohistochemical staining of OX-42 in pyriform cortex and amygdaloid nucleus one day after β-amyloid. The note with it: 0.006% (w/v) ferulic acid in drinking water for 4 weeks, then β-amyloid (1-42); 1 day after; vs β-amyloid (1-42) only; FIGS. 8c and 8f. Type of assay: in vivo, mouse. The protocol:
4- to 5-week old mice each weighing 20 to 25 g was divided into three groups. Ferulic acid was dissolved in water to a concentration of 0.006% (w/v), and the mice of one group were provided with the resulting solution instead of water for 4 weeks. The mice of other two groups were provided with normal drinking water for 4 weeks. Thereafter, the mice of one of two normal drinking water groups were administered, into their cerebral ventricle, with 1.85 μg of β-amyloid (42-1) (“control group”) and the mice of the remaining two groups, with β-amyloid (1-42) (β1-42), as in Reference Example 1.
One day after the administration of β-amyloid, each of the mice was anesthetized with sodium pentobarbital and its abdomen was incised. The mouse was fixed by passing 4% paraformaldehyde through its left ventricle and its brain was excised.
In accordance with the method described in Cho et al., J. Comp. Neurol., 369: 264-276 (1996), a section was prepared from the excised brain and immunohistochemical staining was carried out in order to stain […] in the pyriform cortex and the amygdaloid nucleus by employing 1:500 dilution of anti-OX-42 antibody (Halan (Sera-Lab)).

The test system of assay [4] is mouse cerebral neurons. Put plainly: β-amyloid (1-42)-induced leakage of lactate dehydrogenase (LDH) from primary mouse cortical culture. It counts as cell-based. The settings on record: 100 μM ferulic acid 30 minutes before 25 μM β-amyloid (1-42); 24 and 48 hours; vs β-amyloid (1-42) group; FIG. 10. The protocol:
In accordance with the method of Wie et al. (Neurosci. Lett., 225: 93-96 (1997)), glia was cultured from cells of the cerebral cortex of a mouse and neurons of mouse cerebrum were cultured by employing the glia as a substrate.
The culture of mouse cerebral neurons was divided into three groups. Neurons of one group received no treatment (control group). Neurons of the other two groups were treated with 25 μM of β-amyloid (1-42), and one of these two groups were treated with 100 μM of ferulic acid 30 minutes before the administration of β-amyloid (1-42).
The degree of damage in neurons was determined by measuring the concentration of lactate dehydrogenase (LDH), which was released from the damaged or disrupted neurons into the culture medium, in accordance with the method of Wie et al. Samples of the culture medium were taken at 24 and 48 hours after the administration of β-amyloid (1-42), respectively, and their LDH concentrations were measured with a microplate reader.

For assay [5], the system named is choline acetyltransferase (ChAT). Put plainly: Immunohistochemical staining of ChAT in septal nucleus 5 days after β-amyloid. The settings on record: 0.006% (w/v) ferulic acid for 4 weeks, then β-amyloid (1-42), vs β-amyloid (1-42) only, FIG. 9c. It counts as in vivo, mouse. Here is the method: Three groups of mice were administered with ferulic acid and/or β-amyloid in accordance with the method of (1). 5 days after the administration of β-amyloid, immunohistochemical staining was carried out according to the method of (1) except for employing 1:750 dilution of anti-choline-acetyltransferase (ChAT) antibody (Chemicon) in order to stain CHAT, an enzyme for acetylcholine synthesis, in the septal nucleus wherein acetylcholine neurons are distributed.

Regarding `CC1(C)Oc2cc3oc(=O)ccc3cc2C[C@@H]1O` [decursinol], the “number of arm entries (measure of spontaneous movement)” value in assay [1] (decursinol 7.5 mg/kg or 15 mg/kg daily for 4 weeks, FIG. 6C) is “nearly the same for all groups”. For the same compound, in assay [1] (decursinol 7.5 mg/kg or 15 mg/kg daily for 4 weeks, FIG. 6B), the “alternation behavior (%)” value is “higher and increased dose-dependently”. Further, the “dementia-preventive effect in passive avoidance test” value in assay [2] (decursinol alone, low amount: 2 mg/kg or 3 mg/kg) was “no dementia-preventive effect”. Besides, the “decrease in passive avoidance response time due to β-amyloid (1-42)” value in assay [2] (decursinol in fodder, 7.5 mg/kg or 15 mg/kg daily for 4 weeks, FIG. 6A) is reported as “prevented”.

As for `COc1cc(/C=C/C(=O)O)ccc1O` [ferulic acid], the “number of arm entries (measure of spontaneous movement)” value in assay [1] (ferulic acid, period of administration varied, FIG. 4B) was “nearly the same for all groups”. Moreover, the “alternation behavior (%)” value in assay [1] (ferulic acid, period of administration varied, FIG. 4A) is “higher and increased in proportion to the period of administration”. Besides, the “passive avoidance response time” value in assay [2] (0.006& (w/v) ferulic acid for 1, 2, 3 and 4 weeks, FIG. 3B) is listed as “becomes increasingly higher with the period of administration”. In assay [2] (ferulic acid 0.002%, 0.004% and 0.006% (w/v) in drinking water for 4 weeks before Aβ1-42, FIG. 3A), the “decrease in passive avoidance response time” value is on record as “prevented dose-dependently”. For the same compound, in assay [2] (ferulic acid alone, low amount: 0.002% (w/v) or 0.003% (w/v)), the “dementia-preventive effect in passive avoidance test” value was “no dementia-preventive effect”. Further, in assay [3], the “OX-42 staining in pyriform cortex and amygdaloid nucleus” value is on record as “much less pronounced”. In addition, in assay [4], the “LDH concentration in culture medium” value was “much lower”. Moreover, the “ChAT staining in septal nucleus” value in assay [5] was “the decrease was suppressed”.
